Measured values published in patent US10928381B2, “In vitro methods of monitoring autophagy in a human cell using a photoconvertable fluorescent protein linked biomarker” (The Regents of the University of Michigan, priority 2018, dated 2021).
“Also recorded” adds a separate entry of the source.

System: Dendra2-LC3 HEK cells
Assay: Optical pulse labeling: time-dependent decay of photoconverted (red, RFP/TRITC) Dendra2-LC3 as measure of autophagic flux
Type: cell-based, human
Parameters: key to Hit class in screen of Enzo Autophagy compound library (9H RFP/0H RFP): enhancer: [Sample9H RFP/OH RFP]<[DMSO9H RFP/OH RFP−3SDDMSO]; inhibitor: [Sample9H RFP/OH RFP]>[DMSO9H RFP/OH RFP 3SDDMSO]
Settings: for Effect on torin1-induced Dendra2-LC3 degradation: co-treatment with torin1; for Effect on torin1-induced Dendra2-LC3 degradation / Degradation (decay) of photoconverted Dendra2-LC3: red channel; for Dose dependence of effect on Dendra2-LC3 decay: increasing concentrations, RFP and GFP channels; for Degradation (decay) of photoconverted Dendra2-LC3: vs DMSO, Torin1 1 uM, Bafilomycin-A1 10 nM
Protocol: FIGS. 8A-E. Time dependent decay of Dendra2-LC3 as an assay of autophagic flux. (FIG. 8A) Dendra2-LC3 reporter cells were imaged prior to photoconversion to measure background TRITC intensity. Immediately following photoconversion with a 5 second pulse of […] light, cells were treated with DMSO, 1 uM Torin1, or 10 nM Bafilomycin-A1 and then were subsequently imaged at the indicated time points. Images are psuedocolored to better highlight intensity differences. (FIGS. 8B-E) Time dependent changes in photoconverted Dendra2-LC3 fluorescence in the TRITC (FIGS. 8B, D) and GFP (FIGS. 8C, E) channels. Gray boxes represent the pre and post-photoconversion time points. TRITC intensity values are normalized, setting the background intensity prior to conversion to 0 and the post-conversion value to 1. GFP values are normalized to the pre-conversion intensity. Error bars represent the SEM from three replicate experiments. […] (FIG. 8C) Following photoconversion there is a 40% drop in GFP intensity. As new Dendra2-LC3 is synthesized, GFP levels return to pre-photoconversion levels over the span of 13.5 hours. […] Cells were transfected with 20 nM ATG5 siRNA two days prior to imaging.
FIG. 9A-C. Evaluating the efficacy of known autophagy modulators. (FIG. 9A) An unbiased screen of the Enzo Autophagy compound library identified several known autophagy compounds as hits providing construct validity to the assay. Rapamycin, NVP-BEZ235 and AKT inhibitor X, were among the compounds appropriately identified as enhancers while Bafilomycin registered as an inhibitor. […] Cells were imaged in RFP to measure background fluorescence, then photoconverted with a 4 second DAPI exposure and immediately imaged again to establish the postconversion intensity. Drugs from the Enzo Autophagy library were added at a concentration of 10 uM via a robotic liquid handler. 9 hours later the cells were imaged again in order to assess the efficacy of the drugs. Hits were defined as follows: enhancer: [Sample9H RFP/OH RFP]<[DMSO9H RFP/OH RFP−3SDDMSO], inhibitor: [Sample9H RFP/OH RFP]>[DMSO9H RFP/OH RFP 3SDDMSO]. […] Imaging of the compound library was repeated in GFP. Intensity values are reported 15 hours after drug treatment. (FIG. 9C) The reduction in Dendra2-LC3 half-life observed upon treatment of autophagic flux enhancers is attenuated with partial knockdown of ATG5. Cells were transfected with 20 nM ATG5 siRNA 2 days prior to imaging. Error bars represent SEM from three replicate experiments.
Experiments were conducted during development of embodiments herein to develop a sensitive method—optical pulse labeling (OPL)—that takes advantage of the photoconvertible fluorescent protein Dendra2 for estimations of autophagic flux in cellulo (Refs 14, 34; herein incorporated by reference in their entireties) (FIG. 1b). […] Dendra2 was fused to LC3, a specific marker of autophagosomes and itself an autophagy substrate (Refs. 27, 31; herein incorporated by reference in their entireties). Following photoconversion, the time-dependent reduction in red LC3-Dendra2 (FIG. 1c) is used to calculate protein half-life, representing an estimate of autophagy flux for individual cells (Refs. 14, 34; herein incorporated by reference in their entireties) Furthermore, because LC3 is degraded as autophagosomes mature, the return to steady-state levels of green Dendra2-LC3 after photoconversion (FIG. 1d) reflects activity within the pathway as a whole. The assay is noninvasive, permitting longitudinal analyses of autophagy kinetics in living cells, and amenable to HTS.
For these studies the potent mTOR inhibitor torin1 (Ref. 36; herein incorporated by reference in its entirety) was selected as a positive control for autophagy induction, and the vacuolar ATPase inhibitor bafilomycin-A1 (Ref. 37; herein incorporated by reference in its entirety) as a positive control for autophagy inhibition. In each case, DMSO served as a vehicle (negative) control. […]

In the case of `CO/C1=C\C(C)=C\[C@@H](C)[C@@H](O)[C@@H](C)C/C(C)=C/C=C/[C@H](OC)[C@@H]([C@@H](C)[C@@H](O)[C@H](C)[C@@]2(O)C[C@@H](O)[C@H](C)[C@@H](C(C)C)O2)OC1=O` [Bafilomycin-A1, bafilomycin-A1], the “Hit class in screen of Enzo Autophagy compound library (9H RFP/0H RFP)” value (10 uM, 9 hours after drug addition) is reported as “inhibitor”, the “Effect on torin1-induced Dendra2-LC3 degradation” value (listed as BafilomycinA1) is reported as “blocks induction by torin1” and the “Effect on torin1-induced Dendra2-LC3 degradation” value (listed as bafilomycin-A1) is reported as “completely blocked the effects of torin1”. For the same molecule, the “Dose dependence of effect on Dendra2-LC3 decay” value was “similar, tunable response”, the “Degradation (decay) of photoconverted Dendra2-LC3” value (shortened to “Degradation (decay)”) (listed as bafilomycin) was “extends it” and the “Degradation (decay)” value (listed as bafilomycin-A1) was “slowed its clearance”.
With `CCC(=O)N1CCN(c2ccc(-n3c(=O)ccc4cnc5ccc(-c6cnc7ccccc7c6)cc5c43)cc2C(F)(F)F)CC1` [Torin1, torin1] the “Dose dependence of effect on Dendra2-LC3 decay” value was “increased in a dose dependent manner” and the “Degradation (decay)” value was “significantly accelerates Dendra2-LC3 degradation; also recorded: accelerates decay; also recorded: significantly enhanced Dendra2-LC3 degradation”.
